Experimental data taken from the NIST ThermoML archive (doi:10.1021/je800150h).

Assay: mn = molality of the nth substance listed, in mol/kg
Details: 101 kPa, Liquid; for electrical conductivity: CyberScan CON500 conductivity meter

[Cl-].[Li+] [lithium chloride] + CCO
Details | electrical conductivity [S/m] | mass density [kg/m3] | viscosity [mPa·s]
268.1 K, m1 = 0.196 | 0.117 | 810.9 | 2.208
268.1 K, m1 = 0.391 | 0.197 | 817.9 | 2.546
268.1 K, m1 = 0.782 | 0.269 | 828.4 | 3.283
268.1 K, m1 = 1.173 | 0.3 | 838.1 | 4.167
268.1 K, m1 = 1.76 | 0.305 | 854.5 | 5.819
268.1 K, m1 = 2.347 | 0.276 | 869.4 | 9.082
268.1 K, m1 = 3.129 | 0.222 | 887.7 | 14.96
268.1 K, m1 = 3.911 | 0.162 | 907.8 | 25.44
273.1 K, m1 = 0.196 | 0.13 | 805.1 | 2.043
273.1 K, m1 = 0.391 | 0.221 | 810.6 | 2.313
273.1 K, m1 = 0.782 | 0.3 | 821.3 | 2.943
273.1 K, m1 = 1.173 | 0.335 | 832.5 | 3.722
273.1 K, m1 = 1.76 | 0.343 | 847 | 5.158
273.1 K, m1 = 2.347 | 0.315 | 863.1 | 7.821
273.1 K, m1 = 3.129 | 0.258 | 882.4 | 12.71
273.1 K, m1 = 3.911 | 0.198 | 901.1 | 21.16
278.1 K, m1 = 0.196 | 0.144 | 803.2 | 1.863
278.1 K, m1 = 0.391 | 0.245 | 810.3 | 2.099
278.1 K, m1 = 0.782 | 0.336 | 821.5 | 2.638
278.1 K, m1 = 1.173 | 0.383 | 834.1 | 3.323
278.1 K, m1 = 1.76 | 0.394 | 845.5 | 4.57
278.1 K, m1 = 2.347 | 0.362 | 864.5 | 6.735
278.1 K, m1 = 3.129 | 0.3 | 883.6 | 10.78
278.1 K, m1 = 3.911 | 0.238 | 902.1 | 17.62
283.1 K, m1 = 0.196 | 0.158 | 796.1 | 1.695
283.1 K, m1 = 0.391 | 0.27 | 800.9 | 1.908
283.1 K, m1 = 0.782 | 0.37 | 812.2 | 2.366
283.1 K, m1 = 1.173 | 0.441 | 823.4 | 2.959
283.1 K, m1 = 1.76 | 0.445 | 837.4 | 4.045
283.1 K, m1 = 2.347 | 0.417 | 854.2 | 5.802
283.1 K, m1 = 3.129 | 0.348 | 875.7 | 9.203
283.1 K, m1 = 3.911 | 0.276 | 891.8 | 14.68
288.15 K, m1 = 0.196 | 0.172 | 789.7 | 1.495
288.15 K, m1 = 0.391 | 0.295 | 795.9 | 1.715
288.15 K, m1 = 0.782 | 0.415 | 807.5 | 2.1
288.15 K, m1 = 1.173 | 0.477 | 817.5 | 2.603
288.15 K, m1 = 1.76 | 0.505 | 831.6 | 3.546
288.15 K, m1 = 2.347 | 0.472 | 849.1 | 4.988
288.15 K, m1 = 3.129 | 0.396 | 868.4 | 7.807
288.15 K, m1 = 3.911 | 0.322 | 886.9 | 12.34
293.15 K, m1 = 0.196 | 0.188 | 786 | 1.357
293.15 K, m1 = 0.391 | 0.325 | 791.9 | 1.524
293.15 K, m1 = 0.782 | 0.459 | 803.3 | 1.869
293.15 K, m1 = 1.173 | 0.533 | 813.6 | 2.307
293.15 K, m1 = 1.76 | 0.565 | 828.8 | 3.124
293.15 K, m1 = 2.347 | 0.529 | 845.4 | 4.395
293.15 K, m1 = 3.129 | 0.45 | 864.7 | 6.784
293.15 K, m1 = 3.911 | 0.367 | 883.4 | 10.56
